One data set concerns NQO1. The experiment in a line: NQO1 enzyme activation assay as a readout of NRF2 activation in THP-1 cells. Format: cell-based. The conditions noted are these: Homo sapiens; for Emax: THP-1, percentage activation at top concentration, normalised to DMF (100%) and vehicle controls; for EC50: differentiated THP-1 cells, LPS, 48 hr. How it is done:
NQO1 Enzyme Activation Assay as a Readout of NRF2 Activation in THP-1 Cellular Background
NAD(P)H dehydrogenase [quinone] […] Induction of this gene is concomitant with the inhibition of proinflammatory cytokine transcription and suppression of the inflammatory response (Kobayashi E. H. et al., 2016). The NQO1 enzyme activation activities of compounds of formula (IW-1) were determined using a cellular based NQO1 activation assay (Abcam). The NQO1 activation assay was run in differentiated THP-1 cells (a human monocyte-like cell line) as described below. All reagents described are from Sigma-Aldrich unless specified otherwise. Compounds were prepared as 10 mM DMSO stocks.
THP-1 cells were expanded as a suspension up to 80% confluence in appropriate growth medium. Cells were harvested, suspended, treated with phorbol 12-myristate 13-acetate (PMA) and plated according to the cell density required for each plate format over a 72 hr period (37° C./5% CO2).
Following 72 hrs of THP-1 cell incubation, cellular medium was removed and replaced with fresh media. Working concentrations of compounds were prepared and pre-incubated for 30 minutes (37° C./5% CO2). Compound treatment was then applied to the PMA treated THP-1 cell plate followed by LPS treatment. A ‘low’ (DMSO vehicle only) control and ‘high’ (designated concentration of dimethyl fumarate) was applied to each plate at the point of compound treatment. Cells were subsequently incubated for a 48 hr period (37° C./5% C02) after which all NQO1 assay reagents were prepared according to the manufacturer's instructions. NQO1 extraction buffer was applied to PBS washed THP-1 cells and incubated on ice for 15 minutes to prepare THP-1 lysates for the NQO1 activity assay. THP-1 lysates were diluted 1:5 with PBS and treated with a 1:1 volume of kit prepared NQO1 Reaction Buffer. Absorbance was subsequently measured kinetically on an appropriate reader over a 6 minute period.
For activation determination, the fold change in response per well was determined by first calculating the average NQO1 activation data for the vehicle control and then dividing the individual well response by the averaged NQO1 response for the vehicle control as shown below: Fold change=(Sample value)/MeanMin Where ‘Min’=vehicle control only
The relative 50% activation concentration (EC50) was determined from the resulting fold change response curve. The maximum efficacy (Emax) was reported as the percentage activation calculated at the top concentration of compound used in the titration applied. If a full curve was unattainable preventing a correct curve fit, the Emax value was extrapolated using existing curve data. All percentage activation data were normalised to the DMF and vehicle controls, meaning the Emax represents the percentage […] achieved by a compound at a particular concentration relative to that achieved by DMF (set as the ‘High’ control and therefore representative of 100% activation).

The subject of data set [1] is IL-6 cytokine output from THP-1s. The data set can be described thus: THP-1 AlphaLISA IL-6 cytokine assay. Format: cell-based, human. The conditions noted are these: Homo sapiens; PMA-differentiated THP-1 cells, LPS 24 hr then Nigericin 1 hour. Summed up:
(§1)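 Cells are differentiated with PMA over 72 h, switched to 1% FBS medium and treated with compound for 30 min before LPS stimulation for 24 h. Nigericin is added for a final hour, and secreted cytokine is measured by AlphaLISA, with IC50 fitted from percent inhibition.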
In general terms: Bead proximity is the source of the signal in Alpha formats.

In a further data set the test system is NRF2. The experiment in a line: NRF2 +/-GSH activation assay (DiscoverX PathHunter NRF2 translocation kit, U2OS cells). Format: cell-based. The conditions noted are these: Homo sapiens, GSH condition not stated in Table 5; for Emax: U2OS, normalised to dimethyl fumarate 'High' control, read-out: NRF2 activation Emax; for EC50: U2OS PathHunter cells, 6 hours, read-out: NRF2 activation EC50. The method in brief:
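PathHunter U2OS cells, plated 24 hrs, measured NRF2 nuclear translocation by enzyme-fragment complementation luminescence after 6 hours compound exposure at 37 °C. For +GSH, compound was pre-incubated 30 minutes with GSH (6 mM working stock). EC50 from % activation normalised to dimethyl fumarate high control.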

The test system of data set [2] is IL-1β cytokine output from THP-1s. The data set can be described thus: THP-1 AlphaLISA IL-1β cytokine assay. Format: cell-based, human. The conditions noted are these: Homo sapiens, THP-1, PMA-differentiated THP-1 cells, LPS 24 hr then Nigericin 1 hour; read-out: IL-1β (IC50). Summed up: as §1
Data set [3] is described as follows: Hepatocyte stability assay (human). Format: in vitro ADME. The note with it: cryopreserved hepatocytes, 10 μM compound, 0.5×10^6 cells/mL, 60 minutes, read-out: T½. An excerpt:
(§2) Defrosted cryo-preserved hepatocytes (viability >70%) are used to determine the metabolic stability of a compound via calculation of intrinsic clearance (Clint; a measure of the removal of a compound from the liver in the absence of blood flow and cell binding). Clearance data are particularly important for in vitro work as they can be used in combination with in vivo data to predict the half-life and oral bioavailability of a drug.
(§3) The metabolic stability in hepatocytes assay involves a time-dependent reaction using both positive and negative controls. The cells must be pre-incubated at 37° C. then spiked with test compound (and positive control); samples taken at pre-determined time intervals are analysed to monitor the change in concentration of the initial drug compound over 60 minutes. A buffer incubation reaction (with no hepatocytes present) acts as a negative control and two cocktail solutions, containing compounds with known high and low clearance values (verapamil/7-hydroxycoumarin and propranolol/diltiazem), act as positive controls. • 1. The assay is run with a cell concentration of 0.5×10^6 cells/mL in Leibovitz buffer. • 2. All compounds and controls are run in duplicate. • 3. Compound concentration is 10 μM. • 4. All compounds and controls are incubated with both cells and buffer to show turnover is due to hepatic metabolism. • 5. All wells on the incubation plate will have 326.7 μL of either cells or buffer added. • 6. Prior to assay, cell and buffer-only incubation plates are preincubated for 10 mins at 37° C. • 7. The assay is initiated by adding compounds, 3.3 μL of 1 mM in 10% DMSO-90% Buffer; final DMSO concentration is 0.1%. • 8. Samples are taken at regular timepoints (0, 5, 10, 20, 40, 60 min) until 60 mins. • 9. Sample volume is 40 μL and it is added to 160 μL of crash solvent (acetonitrile with internal standard) and stored on ice. • 10. At the end of the assay, the crash plates are centrifuged at 3500 rpm for 20 mins at 4° C. • 11. 80 μL of clear supernatant is removed and mixed with 80 μL of deionised water before being analysed by LC-MS/MS.
(§4) Raw LC-MS/MS data are exported to, and analysed in, Microsoft Excel for determination of intrinsic clearance. The percentage remaining of a compound is monitored using the peak area of the initial concentration as 100%. Intrinsic clearance and half-life values are calculated using a graph of the natural log of percentage remaining versus the time of reaction in minutes. Half-life (min) and intrinsic clearance (Clint in μL min^−1 10^−6 cells) values are calculated using the gradient of the graph (the elimination rate constant, k) and Equations 1 and 2.

The test system of data set [4] is hepatocytes. The experiment in a line: Hepatocyte stability assay (human). Format: in vitro ADME. The conditions noted are these: 10 μM compound, 0.5×10^6 cells/mL, 60 minutes.
Description: as §2, §3, §4

The nature of data set [5]: Mouse pharmacokinetic study, intravenous dosing. Format: in vivo. The note with it: male, C57BL/6, mouse, iv, plasma, 10 mg/kg i.v., read-out: Parent compound concentration following intravenous administration. Summed up: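 Male C57BL/6 mice (6-8 weeks, fed ad libitum); IV tail-vein 10 mg/kg in 10% DMSO/25% HP-β-CD, sampled 3 min–8 h; oral gavage 100 mg/kg in 5% DMSO/0.5% HPMC+0.1% Tween 80, sampled 5 min–24 h. N=3/time point, semi-serial facial-vein bleeds into K2EDTA; plasma levels by LC-MS/MS.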

Data set [6] in a line: Hepatocyte stability assay (mouse). Format: in vitro ADME. The conditions noted are these: cryopreserved hepatocytes, 10 μM compound, 0.5×10^6 cells/mL, 60 minutes, read-out: T½.
Description: as §2, §3, §4

Data set [7] concerns hepatocytes. The data set can be described thus: Hepatocyte stability assay (mouse). Format: in vitro ADME. The conditions noted are these: 10 μM compound, 0.5×10^6 cells/mL, 60 minutes.
Description: as §2, §3, §4

As to `C=C(CC(=O)OCCCCCCCC)C(=O)OCCN1CCCC1=O` [Example 5, 4-octyl 1-(2-(2-oxopyrrolidin-1-yl)ethyl) 2-methylenesuccinate], the Emax (commonly the size of the effect at its maximum, as opposed to the concentration needed) in the data set on NQO1 worked out at 81%; in the data set with NRF2, 216%. For the same compound, the values for the EC50 in the data set with NQO1 and with NRF2 were 5.9 µM and 5.7 µM, respectively. The results for the IC50 in [1] and in data set [2] were 2 µM and 6.5 µM, respectively.
As for `C=C(CC(=O)OCCCCCC)C(=O)OCCS(C)(=O)=O` [Example 14, 4-hexyl 1-(2-(methylsulfonyl)ethyl) 2-methylenesuccinate], the results for the Emax in the data set on NQO1 and in the data set on NRF2 were 180% and 189%, respectively. Also, the EC50 (as a rule, the midpoint of the concentration-response curve) in the data set on NQO1 was 14.4 µM; in the data set with NRF2 it was 8.8 µM. The IC50 (commonly the concentration at which inhibition is half-maximal) in data set [1] was 2.1 µM; in [2], 1.6 µM.
Regarding `C=C(CC(=O)OCCCOc1ccccc1)C(=O)OCCS(C)(=O)=O` [Example 20, 1-(2-(methylsulfonyl)ethyl) 4-(3-phenoxypropyl) 2-methylenesuccinate], the Emax came out at 224% with NQO1 and 116% with NRF2. Further, the EC50 in the data set on NQO1 was determined as 20 µM; with NRF2, 13.5 µM. The figures for the 50% inhibitory concentration (IC50) in data set [1] and in data set [2] were 3.4 µM and 5.6 µM, respectively.
Regarding `C=C(CC(=O)OCCCCCCCC)C(=O)OCC(=O)N(C)C` [Example 21, 1-(2-(dimethylamino)-2-oxoethyl) 4-octyl 2-methylenesuccinate], the Emax in the data set with NQO1 was 150%. In the data set with NQO1, this compound registered a concentration for a half-maximal effect (EC50) of 12.1 µM. Besides, the results for the IC50 in data set [1] and in data set [2] were 2.4 µM and 2.9 µM, respectively.
In the same order, the values of `C=C(CC(=O)OCCCCCC)C(=O)OC1COC1` [Example 38, 4-hexyl 1-(oxetan-3-yl) 2-methylenesuccinate] are 111%, 8.5 µM, 6.8 µM and 7.4 µM.
The matching figures for `C=C(CC(=O)OCCCC)C(=O)OCCS(=O)(=O)c1ccc(C)cc1` [Example 39, 4-butyl 1-(2-tosylethyl) 2-methylenesuccinate]: 59%, 1.3 µM, 7.3 µM and 5.1 µM.
The matching figures for `C=C(CC(=O)OCCCCCCCC)C(=O)OCCS(=O)(=O)c1ccc(C)cc1` [Example 40, 4-octyl 1-(2-tosylethyl) 2-methylenesuccinate]: 56%, 16.6 µM, 3.4 µM and 1.7 µM.
As for `C=C(CC(=O)O[C@H]1C[C@H]2CC[C@]1(C)C2(C)C)C(=O)OCC(=O)O` [Example 179, 2-((2-methylene-4-oxo-4-(((1R,2S,4R)-1,7,7-trimethylbicyclo[2.2.1]heptan-2-yl)oxy)butanoyl)oxy)acetic acid], the figures for the half-life at 10 μM in data set [3] and in data set [6] were 2.15 h and 0.217 h, respectively. Also, the entries for the “CIint (μL min^−1 10^−6 cells)” value with hepatocytes [4] and in the data set on hepatocytes [7] were 13 μL min^−1 10^−6 cells and 129 μL min^−1 10^−6 cells, respectively. For the same compound, the concentration at 0.05 h in [5] (time 0.05 h) is 17900 ng/mL. Further, in [5] (time 0.133 h), the concentration at 0.133 h came out at 5320 ng/mL. Further, in data set [5] (time 0.25 h), the concentration at 0.25 h is 1810 ng/mL. Further, the concentration at 0.5 h in [5] (time 0.5 h) amounted to 456 ng/mL. In addition, in data set [5] (time 1 h), the concentration at 1 h amounted to 13 ng/mL. Moreover, the concentration at 2 h in [5] (time 2 h) is under 4 ng/mL. In data set [5] (time 4 h), the concentration at 4 h is under 4 ng/mL. Further, in [5] (time 6 h), the concentration at 6 h is under 4 ng/mL. Also, the concentration at 8 h in data set [5] (time 8 h) was under 4 ng/mL. In addition, the IC50 in data set [2] is 11 µM.

The record behind these values is US12390437B2, “Itaconic acid derivatives and uses thereof intreating an inflammatory disease or a disease associated with an undesirable immune response” (Sitryx Therapeutics Limited, priority 2019, dated 2025).
